Measurements taken from publication PMC11655744, “Antioxidant, anti-acetylcholinesterase, and anti-amyloid-β peptide aggregations of hispolon and its analogs in vitro and improved learning and memory functions in scopolamine-induced ICR mice” (Botanical Studies, 2024).
Several values for one entry are separate records, joined by “and”; a condition that tells them apart may be missing. Equal entries are not always repeated. Structures can show the parent of a compound that is named as a salt.

B1: lecanemab (antibody, chains of the INN, looked up, V domains shown)
VH: EVQLVESGGGLVQPGGSLRLSCSASGFTFSSFGMHWVRQAPGKGLEWVAYISSGSSTIYYGDTVKGRFTISRDNAKNSLFLQMSSLRAEDTAVYYCAREGGYYYGRSYYTMDYWGQGTTVTVSS
VL: DVVMTQSPLSLPVTPGAPASISCRSSQSIVHSNGNTYLEWYLQKPGQSPKLLIYKVSNRFSGVPDRFSGSGSGTDFTLRISRVEAEDVGIYYCFQGSHVPPTFGPGTKLEIK

Legend:
[1] = biological target: T1, Aβ1-42 peptide (Homo sapiens, UniProt P05067); experiment: Anti-Aβ1-42 peptide aggregation, thioflavin T binding assay; format: biochemical; conditions: 10 µM Aβ1-42, 10 µM ThT, 37 °C, 24 h; read-out: IC50 of anti-Aβ1-42 peptide aggregations
T1 construct: The preparation of Aβ1–42 peptide stock solution was following the previous report; purchased Sigma Chemical Co. (St. Louis, MO)
T1 sequence (P05067 672-713): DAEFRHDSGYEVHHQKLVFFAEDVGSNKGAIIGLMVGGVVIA
Description: The DMSO was used instead of the sample solution as the control. […] The inhibition against Aβ aggregation (%) was calculated as [(Econtrol,24−h-Econtrol,0−h)- (Esample,24−h-Esample,0−h)/(Econtrol,24 h-Econtrol,0−h)] ×100%.

[2] = DPPH radical scavenging activity; format: biochemical; conditions: 100 µM DPPH in methanol, 20 min, A517nm; IC50 from linear equation of 20, 50 and 100 µM; read-out: IC50 of DPPH radical scavenging activities
Description: The 60 µL of different concentrations of samples (10, 20, 50, 100, 150, and 200 µM diluted with DMSO) were added into a 96-well plate, and then 140 µl of 100 µM DPPH in methanol was added under light protection for 20 min. The changes of absorbance at A517nm were measured, and DMSO was used instead of a sample solution in the control group. The scavenging activity of the DPPH radical (%) was calculated with the following equation: (Control-sample)/control ×100%.

[3] = biological target: T2, recombinant human AChE (Homo sapiens, UniProt P22303); experiment: biochemical; conditions: pH 7.5, tested at 125 to 1000 µM, read-out: AChE inhibitory activity IC50
T2 construct: purchased R&D Systems Inc. (Minneapolis, MN)
T2 sequence (P22303 32-614): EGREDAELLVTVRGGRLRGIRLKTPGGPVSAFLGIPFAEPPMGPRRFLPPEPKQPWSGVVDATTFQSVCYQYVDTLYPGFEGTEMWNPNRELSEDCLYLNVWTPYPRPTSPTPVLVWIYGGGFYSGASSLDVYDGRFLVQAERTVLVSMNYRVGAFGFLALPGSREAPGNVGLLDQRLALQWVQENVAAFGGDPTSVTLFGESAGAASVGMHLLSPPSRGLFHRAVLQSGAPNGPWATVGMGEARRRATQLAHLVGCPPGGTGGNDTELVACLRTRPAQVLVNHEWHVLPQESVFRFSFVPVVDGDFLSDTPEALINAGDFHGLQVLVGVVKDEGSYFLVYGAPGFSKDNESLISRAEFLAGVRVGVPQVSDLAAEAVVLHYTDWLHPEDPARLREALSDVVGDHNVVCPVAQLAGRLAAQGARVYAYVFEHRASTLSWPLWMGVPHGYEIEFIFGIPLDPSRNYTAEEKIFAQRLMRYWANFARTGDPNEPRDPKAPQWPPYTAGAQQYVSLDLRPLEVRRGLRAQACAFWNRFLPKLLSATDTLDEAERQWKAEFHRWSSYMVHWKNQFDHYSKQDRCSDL
Description: The AChE substrates of acetylthiocholine iodide was added for another 15 min, and the DTNB coupling reagents was added and the mixture was recorded at 405 nm for 10 min. The DMSO instead of sample solution was used as the blank. AChE inhibition (%) was calculated by [(A405blank-A405sample)/(A405blank)] ×100%.

[4] = tested on: SH-SY5Y neuroblastoma cells; experiment: Neuroprotective activity in methylglyoxal-treated SH-SY5Y neuronal cells (MTT, morphology); format: cell-based; conditions: for morphologies of methylglyoxal-treated SH-SY5Y cells: 10 µM, 500 µM methylglyoxal, photographs, 200-fold; for cell viabilities of methylglyoxal-treated SH-SY5Y cells compared to the control: 24 h pre-treatment, then 500 µM methylglyoxal 24 h, MTT
Description: The SH-SY5Y cells (1 × 10^4 cells/well) were seeded onto a 96-well microplate and cultured in a DMEM/F-12 medium containing 10% FBS for 24 h at 37 °C under a humidified atmosphere and 5% CO2. The cultural medium was removed, and the different concentrations of hispolon (No.1), No.6, and No.7 or 0.1% DMSO (the control and the blank) were added and incubated at 37 °C in a humidified atmosphere with 5% CO2 for 24 h. The treated medium was removed, washed with PBS, and 500 µM MGO in PBS were added to the medium for another 24 h culture. The equal aliquot of PBS was added in the blank.

[5] = tested on: PC12 cells; experiment: Neurite outgrowths in PC12 pheochromocytoma cells; format: cell-based, rat; conditions: 3-day treatment, blank 3.62 ± 1.62 μm
Description: The PC12 cells (5 × 10^3/well) were seeded in poly-L-lysine coated 96-well plate and cultured in RPMI-640 medium supplemented with 10% horse serum, 5% FBS, 100 U/ml penicillin and 100 mg/l streptomycin for 24 h at 37 °C under the humidified atmosphere and 5% CO2. […] The DMSO was used instead of the sample solution as the blank. After an interval of 3 days, the cell morphologies were photographed using an inverted microscope (200-fold magnifications, ECLIPSE TS100, Nikon Instruments Inc., Tokyo, Japan).

[6] = tested on: scopolamine-induced ICR mice; experiment: Passive avoidance test in scopolamine-induced cognitive dysfunction ICR mice; format: in vivo; conditions: scopolamine 1 mg/kg i.p., P < 0.05
Description: The 5-week-old (N = 30) male ICR mice were purchased from the Laboratory Animal Center in College of Medicine, National Taiwan University, and were housed in wire-bottomed stainless-steel cages and had free access to normal feeds (Prolab^Ⓡ RMH2500, MO) and water, which these cages were placed in an environmental controlled space under a 12-h light/dark cycle. After at least one-week acclimation, the mice were randomly divided into six groups, including the blank, the control, the positive control (donepezil-intervened), and the sample pre-treated groups (No.1, No.6, and No.7 groups). […] For mice in the blank, the control, and the positive control, mice were orally received the same volume of distilled water once daily for 10 days in the parallel experiments. In the second stage of animal experiments during day 11 to day 15, mice in the blank, the control, and the sample groups were treated as reported in the first stage, and mice in the positive control group were treated with donepezil (5 mg/kg) orally once a day by gavage feeding, and 30 min later, mice in the control, sample groups, and positive control were injected intraperitoneally with scopolamine (1 mg/kg, dissolved in PBS), and mice in the blank were injected with the same volume of PBS. At day 13 to day 15, after being injected with scopolamine or the same volume of PBS for 30 min, mice in each group were evaluated learning behaviours by the passive avoidance test. The passive avoidance apparatus, a computerized chamber (PACS-30, Columbus Instruments Inc., Columbus, OH) separated by a sliding guillotine door, is composed of a LED light box and a dark box. At the first day of the acquisition trial (day 13), the guillotine door was opened and each mouse was placed in the LED light box. In case the mouse entered the dark box, the automatic and computerized sliding guillotine door was closed, the entered mouse in the dark box received an electric foot shock (0.3 mA for 3 s) delivered via the wired metal floor and then sent back to the cage. The staying time in the light box (the step-through latency, sec) was recorded. The protocol in the second day (day 14) was the same as the first day. If the mouse stayed in the light box longer than 300 s, and the mouse was expelled into light box and received the same electric foot shocks. At the third day (day 15) of the retention trial, each mouse was placed again in the light box, and the staying time in the light box was recorded. The maximum time was 300 s.

[7] = tested on: RAW264.7 macrophages; experiment: Cell viability of RAW264.7 macrophages (MTT)
Description: (§1) The 5 × 10^4 macrophages/well were seeded in the 96-well plate and cultured for 24 h at 37 °C under the humidified atmosphere and 5% CO2. The cells were pre-treated with hispolon (No.1, 2.5, 5, 10, and 20 µM), No.2, No.3, No.4, and No.5 (5, 10, and 20 µM), and No.6 and No.7 (5, 10, 20, and 40 µM) for 24 h. The LPS (500 ng/ml) was then added to the pre-treated RAW264.7 macrophages for another 24 h for nitric oxide productions. For nitric oxide productions in LPS-treated RAW264.7 macrophages, the culture supernatant (100 µl) was mixed with 100 µl of Griess reagent at room temperature for 30 min. The absorbance at 550 nm was measured and expressed as relative nitric oxide productions (the control was recognized as 100%). […] The sample pretreated-RAW264.7 cells were stained with MTT solution (500 µg/mL), which the formazan was dissolved by 200 µL DMSO, and the absorbance at 570 nm was measured, and was expressed relative to the blank (%).

[8] = tested on: RAW264.7 macrophages; experiment: Anti-nitric oxide productions in lipopolysaccharide-treated RAW264.7 macrophages (Griess); format: cell-based; conditions: 2.5 µM, 24 h pre-treatment, then LPS 500 ng/ml 24 h
Description: as §1

[9] = tested on: soluble Aβ protofibrils; conditions: intravenously every 2 weeks, 10 mg/kg of body weight, 18 months; ref van Dyck et al. [2023]; cited from earlier work
[10] = 40 mg/kg orally once daily, 10-day pre-treatment and days 11-15

Molecule	IC50 [1]	IC50 [2]	IC50 [3]	average neurite lengths of PC12 cells ([5]; 1 µM)	average neurite lengths of PC12 cells ([5]; 2 µM)	step-through latency in the retention trial (day 15) compared to the control [6, 10]	further results
CC(=O)CC(=O)/C=C/c1cc(O)c(O)c(O)c1 [No.2, 5-hydroxy hispolon]	340 nM and 335 nM	28.3 µM	> 1 mM				
CC(=O)CC(=O)/C=C/c1ccc(O)c(O)c1O [No.6, 2-hydroxy hispolon]	1030 nM	38.2 µM	0.286 mM	8.50 ± 3.48 μm	7.01 ± 3.11 μm	prolong the staying time in the light box	morphologies of methylglyoxal-treated SH-SY5Y cells [4]: recover parts of methylglyoxal-damaged neuritic lengths and restore pyramidal shapes; cell viabilities of methylglyoxal-treated SH-SY5Y cells compared to the control ([4]; 1, 2, 5 and 10 µM): had significant differences compared to those in the control
COc1cc(/C=C/C(=O)CC(C)=O)cc(OC)c1O [No.4, 5-methoxyhispolon monomethyl ether]	12400 nM	79.4 µM	> 1 mM				
COc1cc(/C=C/C(=O)CC(C)=O)cc(O)c1O [No.3, 5-methoxyhispolon]	350 nM and 354 nM	21 µM	> 1 mM				
COc1c(O)ccc(/C=C/C(=O)CC(C)=O)c1O [No.7, 2-hydroxy hispolon monomethyl ether]	950 nM and 953 nM	37.3 µM	> 1 mM	5.40 ± 1.96 μm	8.05 ± 4.69 μm	prolong the staying time in the light box	morphologies of methylglyoxal-treated SH-SY5Y cells [4]: recover parts of methylglyoxal-damaged neuritic lengths and restore pyramidal shapes; cell viabilities of methylglyoxal-treated SH-SY5Y cells compared to the control ([4]; 1, 2, 5 and 10 µM): had significant differences compared to those in the control
COc1cc(/C=C/C(=O)CC(C)=O)cc(OC)c1OC [No.5, 5-methoxyhispolon dimethyl ether]	> 20000 nM	> 100 µM	> 1 mM				
NGF							average neurite lengths of PC12 cells ([5]; 100 ng/ml, positive control): 9.18 ± 4.87 μm
CC(=O)CC(=O)/C=C/c1ccc(O)c(O)c1 [No.1, Hispolon]	1410 nM	32.3 µM	0.828 mM	8.02 ± 3.14 μm	8.49 ± 3.61 μm	prolong the staying time in the light box	cytotoxicity toward RAW264.7 macrophages ([7]; 2.5 µM): no apparent toxicities; cytotoxicity toward RAW264.7 macrophages ([7]; 5, 10 and 20 µM): showed cytotoxicities toward RAW264.7 macrophages; cell viabilities of methylglyoxal-treated SH-SY5Y cells compared to the control ([4]; 5 and 10 µM): no significant difference was found compared to those in the control; relative nitric oxide productions (control = 100%) [8]: 70%
COc1cc2c(cc1OC)C(=O)C(CC1CCN(Cc3ccccc3)CC1)C2 (centres unmarked) [donepezil, donepezil hydrochloride, reference compound]							step-through latency in the retention trial (day 15) compared to the control ([6]; 5 mg/kg orally once a day, days 11-15, positive control): prolong the staying time in the light box
B1							less cognitive decline in CDR-SB change between baseline and last visit compared to placebo [9]: 27%
